Experimental data published in patent US20200197341A1, “IMMUNMODULATION FOR PREVENTION OF POOR HEALING OF MUSCULOSKELETAL INJURIES IN COMPROMISED PATIENTS” (CHARITÉ UNIVERSITÄTSMEDIZIN BERLIN, priority 2017, published 2020).
Entries after “also recorded” stand apart in the source; their conditions may differ.

What was measured:
[1] = tested on: drill hole in the diaphyseal and metaphyseal bone; assay: Sheep drill hole bone healing model, μCT evaluation of bone formation; format: in vivo; details: after 3 and 9 weeks, Iloprost in collagen scaffold (burst release), applied immediately, 1 ml Ilomedin per two scaffolds
Text: Prior publications, e.g. US 20150164853 A1, stated that immediate use of Iloprost locally to enhance bone healing is beneficial. To investigate this a high dose of Iloprost was used in a sheep bone healing model where the agent was applied in a collagen scaffold, which has a burst-release dynamic.
Bone formation has been analyzed in a drill hole model (Establishment of a preclinical ovine screening model for the investigation of bone tissue engineering strategies in cancellous and cortical bone defects. Pobloth A M, Johnson K A, Schell H, Kolarczik N, Wulsten D, Duda G N, Schmidt-Bleek K. BMC Musculoskelet Disord. 2016 Mar. 1; 17:111.). The empty control group and the collagen only group were used as negative controls while the autologous spongiosa group, the current gold standard in bone therapy, was used as a positive control. In the Ilomedin group a supraphysiological dosis of 1 ml Iloprost (Ilomedin, […] Infusionslosung, Bayer Vital GmbH, Leverkusen, Deutschland) per two scaffolds was used.

femur mouse osteotomies = assay: Mouse femur osteotomy with fibrin release system, μCT of newly formed bone; format: in vivo
Procedure: Mouse experiments were performed with 12-week-old C57BL/6 females (n=6, each sample type) (Charles River Laboratories) according to the policies and principles established by the Animal Welfare Act, the National Institutes of Health Guide for the Care and Use of Laboratory Animals, and the National Animal Welfare Guidelines. All animal experiments were approved by the local legal representative. Animals were kept under obligatory hygiene standards that were monitored according to the FELASA standards.
The osteotomy was performed on the left femur. After shaving and disinfecting the operation area of isoflurane-anesthetized animals, a lateral longitudinal incision of the skin (2 mm) from knee to hip was performed for a mid-diaphyseal approach to the femur. The femur was exposed by blunt preparation of Musculus vastus lateralis and Muscculus biceps femoris, carefully sparing the sciatic nerve. Serial drilling for pin placement (0.45 mm diameter) through the connector bar of the external fixator (MouseExFix, RlSystem, Davos, Switzerland) was performed, thus positioning the external fixator laterally in parallel to the femur. A 0.70 mm osteotomy was performed between the middle pins using a Gigli wire saw (RISystem, Davos, Switzerland). […]
The newly formed mineralized bone tissues were analyzed using high-resolution micro computed tomography (μCT). […]

## CC#CCC(C)[C@H](O)/C=C/[C@@H]1[C@H]2C/C(=C/CCCC(=O)O)C[C@H]2C[C@H]1O (stereo partly drawn) [Iloprost]
[1]
  bone formation in a drill hole (μCT): No differences between the collagen group and the collagen Iloprost loaded group; also recorded: no enhanced bone formation was detectable
Femur mouse osteotomies; mouse femur osteotomy, 21 days healing, fibrin release system with 3 μM Iloprost in core, median, N=6, p=0.016 vs vehicle
  newly formed bone volume (BV): 1.347 mm^3
Femur mouse osteotomies; mouse, after 21 days of regeneration, Iloprost loaded release system
  volumes of newly formed bone vs empty vehicle control (μCT): significantly increased volumes of newly formed bone
